Assay results reported in publication PMC9675574 (JCI Insight, 2022).
Like-named read-outs stand apart in the source and are kept apart here.

Experiments:
Assay type in all cases: biochemical
[1] = molecular target: T1, sulfated human trypsin PRSS2-SO4 purified from pancreatic juice (Homo sapiens, UniProt P07478); assay: Competitive inhibition kinetics of trypsin, GPR-pNA substrate; conditions: for kcat / Km: GPR-pNA, 24°C; for Ki: mean ± SD, n = 3
T1 construct: from tissue; host or cells: human pancreatic juice
T1 sequence (P07478 24-247): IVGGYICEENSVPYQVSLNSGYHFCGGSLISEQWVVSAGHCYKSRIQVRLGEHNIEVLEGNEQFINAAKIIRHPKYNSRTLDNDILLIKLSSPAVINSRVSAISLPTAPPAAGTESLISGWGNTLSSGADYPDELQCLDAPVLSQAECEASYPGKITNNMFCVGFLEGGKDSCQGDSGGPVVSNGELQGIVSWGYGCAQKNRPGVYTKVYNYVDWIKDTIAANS
Description: (§1) Recombinant human and mouse trypsinogens were expressed in Escherichia coli BL21(DE3) (Invitrogen), refolded in vitro, and purified by ecotin affinity chromatography (Pharmacia FPLC), according to published protocols ([60], [63], [64]). Sulfated human trypsinogens were purified from archived samples of human pancreatic juice, as described previously, with minor modifications ([65], [66]). Briefly, 50 mg freeze-dried pancreatic juice was dissolved in 2 mL 10 mM HCl, clarified by centrifugation (21,000g, 5 minutes, 4°C), and loaded onto a MonoQ 5/50 GL column equilibrated with 20 mM Tris-HCl (pH 8.0). Proteins were eluted with a 0–0.5 M NaCl gradient at 1 mL/min flow rate for 30 minutes. The fractions containing the cationic and anionic trypsinogens were further purified with ecotin affinity chromatography. The concentration of trypsinogen preparations was estimated from their UV absorbance at 280 nm using the extinction coefficients reported previously for mouse trypsinogens ([64]) and 37,525, 38,890, and 41,535/M/cm for human cationic trypsinogen (PRSS1), anionic trypsinogen (PRSS2), and mesotrypsinogen (PRSS3), respectively. To activate trypsinogen to trypsin, approximately 1 μM solution was incubated at 37°C with 28.2 ng/mL human enterokinase (final concentration) in 0.1 M Tris-HCl (pH 8.0), 10 mM CaCl2, and 0.05% Tween 20 for 1 hour. The activation reaction was followed by measuring trypsin activity: 2 μL trypsin was diluted in 48 μL assay buffer [0.1 M Tris-HCl (pH 8.0), 1 mM CaCl2, and 0.05% Tween 20], and 150 μL of 200 μM GPR-pNA trypsin substrate (in assay buffer) was added. Substrate cleavage resulting in the release of the yellow p-nitroaniline was monitored for 1 minute in a Spectramax Plus 384 microplate reader at 405 nm.
(§2) Michaelis-Menten kinetic parameters of trypsin isoforms were determined with the chromogenic substrate GPR-pNA at 24°C. The trypsin concentration was 1 nM and the substrate concentration was varied typically between 1.56 and 200 μM in a final volume of 200 μL assay buffer. The substrate concentration range was 3.1–400 μM for mouse trypsin isoform T7 and 0.4–50 μM for mouse trypsin isoform T20. Km and kcat values were calculated from hyperbolic fits to plots of reaction velocity versus substrate concentration.
(§3) Michaelis-Menten kinetic parameters were then measured after adding 100 μL trypsin substrate, as described above. […] To determine the Ki, the Km values were plotted as a function of the inhibitor concentration, and the Ki was calculated by dividing the y axis intercept with the slope of the linear fit. This value corresponds to the negative of the x axis intercept. Alternatively, the substrate saturation curves obtained in the absence and presence of the increasing inhibitor concentrations were globally fitted to the competitive inhibition equation y = vmax × (x/[KmObs+ x]), where y is the reaction velocity, vmax is the maximal velocity, x is the substrate concentration, and KmObs = Km × (1 + [I]/Ki), where [I] is the inhibitor concentration. Experiments were performed 3 times and each experiment was analyzed separately. […] Kinetic analysis was performed with the Prism 8 program (GraphPad).

[2] = molecular target: T2, sulfated human trypsin PRSS1-SO4 purified from pancreatic juice (Homo sapiens, UniProt P07477); assay: as above; conditions: for kcat / Km: GPR-pNA, 24°C; for Ki: mean ± SD, n = 3
T2 construct: from tissue; host or cells: human pancreatic juice
Description: as §1, §2, §3

[3] = molecular target: T3, human trypsin isoform PRSS2 (anionic trypsin), recombinant (Homo sapiens, UniProt P07478); assay: as above; conditions: for kcat / Km: GPR-pNA, 24°C; for Ki: mean ± SD, n = 3
T3 construct: made in house; host or cells: Escherichia coli BL21(DE3)
T3 sequence (P07478 24-247): as above
Description: as §1, §2, §3

[4] = molecular target: mouse trypsin isoform T7 (cationic trypsin) (Mus musculus, UniProt Q9CPN9); conditions: GPR-pNA, 24°C
mouse trypsin isoform T7 (cationic trypsin), sequence (Q9CPN9 entry or part of it): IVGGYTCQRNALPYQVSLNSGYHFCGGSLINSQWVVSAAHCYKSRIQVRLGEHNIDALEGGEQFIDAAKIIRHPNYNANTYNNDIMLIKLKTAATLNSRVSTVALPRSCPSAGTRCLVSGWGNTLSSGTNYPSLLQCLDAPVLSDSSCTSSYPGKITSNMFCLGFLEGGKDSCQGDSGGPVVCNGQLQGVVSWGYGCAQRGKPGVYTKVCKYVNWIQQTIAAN
Description: as §1, §2, §3

bovine trypsin = molecular target: T4, bovine trypsin (Bos taurus, UniProt P00760); assay: Competitive inhibition kinetics of trypsin, GPR-pNA substrate; conditions: 24°C
T4 construct: purchased Worthington Biochemical Corporation LS003707
T4 sequence (P00760 24-246): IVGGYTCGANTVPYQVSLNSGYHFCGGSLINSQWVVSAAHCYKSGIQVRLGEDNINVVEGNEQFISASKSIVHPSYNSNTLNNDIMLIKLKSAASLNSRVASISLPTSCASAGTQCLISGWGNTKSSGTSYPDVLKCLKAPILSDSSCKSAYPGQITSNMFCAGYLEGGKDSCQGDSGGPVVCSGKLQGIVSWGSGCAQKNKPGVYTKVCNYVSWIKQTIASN
Description: Bovine trypsin (catalog number LS003707) was purchased from Worthington Biochemical Corporation and was active-site titrated with p-nitrophenyl p’-guanidino-benzoate (catalog number N-8010, MilliporeSigma) ([59]). Ecotin was produced and purified as reported previously ([60]). The concentration of ecotin was determined by titration against active-site titrated bovine trypsin. Recombinant human pro-enterokinase (catalog number 1585-SE-010) was purchased from R&D Systems and was activated with human cationic trypsin. The trypsin substrate GPR-pNA (catalog number 4000768.0100) was purchased from Bachem Americas. […] Michaelis-Menten kinetic parameters of trypsin isoforms were determined with the chromogenic substrate GPR-pNA at 24°C. […] Km and kcat values were calculated from hyperbolic fits to plots of reaction velocity versus substrate concentration. […] To determine the Ki, the Km values were plotted as a function of the inhibitor concentration, and the Ki was calculated by dividing the y axis intercept with the slope of the linear fit. This value corresponds to the negative of the x axis intercept. […] Experiments were performed 3 times and each experiment was analyzed separately. […] Kinetic analysis was performed with the Prism 8 program (GraphPad).

N=C(N)c1ccccc1 [benzamidine]
kcat ([1]; 12.5 μM benzamidine): 64.8 ± 1.6 per second
kcat ([1]; 25 μM benzamidine): 64.3 ± 1.4 per second
kcat ([1]; 37.5 μM benzamidine): 64.5 ± 1.5 per second
kcat ([1]; 50 μM benzamidine): 69.3 ± 0.3 per second
Ki ([1]; Ki benzamidine, Global fit): 4200 ± 700 nM
Ki ([1]; Ki benzamidine, Individual fit): 3300 ± 500 nM
kcat ([2]; 12.5 μM benzamidine): 104.1 ± 2.8 per second
kcat ([2]; 25 μM benzamidine): 112.1 ± 4.9 per second
kcat ([2]; 37.5 μM benzamidine): 108.4 ± 5.3 per second
kcat ([2]; 50 μM benzamidine): 113.6 ± 7.2 per second
Ki ([2]; Ki benzamidine, Global fit): 10.5 ± 0.9 µM
Ki ([2]; Ki benzamidine, Individual fit): 8.3 ± 2.2 µM
kcat ([3]; 25 μM benzamidine): 78.7 ± 1.7 per second
kcat ([3]; 50 μM benzamidine): 78.4 ± 1.8 per second
kcat ([3]; 75 μM benzamidine): 82.1 ± 2.4 per second
kcat ([3]; 100 μM benzamidine): 78.3 ± 4.5 per second
Ki ([3]; Ki benzamidine, Global fit): 8.9 ± 0.7 µM
Ki ([3]; Ki benzamidine, Individual fit): 8.6 ± 2.2 µM
kcat ([4]; 12.5 μM benzamidine): 125.4 ± 2.7 per second
kcat ([4]; 25 μM benzamidine): 125.5 ± 3.5 per second
kcat ([4]; 37.5 μM benzamidine): 135 ± 3.9 per second
kcat ([4]; 50 μM benzamidine): 127.9 ± 7.5 per second
kcat (bovine trypsin; 25 μM benzamidine): 109 ± 9.5 per second
kcat (bovine trypsin; 50 μM benzamidine): 115.8 ± .9 per second

[H]/N=C(/N)c1ccc(NCc2nc3cc(C(=O)N(CCC(=O)O)c4ccccn4)ccc3n2C)cc1 [dabigatran]
Km ([1]; 25 nM dabigatran): 13 ± 0.5 µM
kcat ([1]; 25 nM dabigatran): 63.4 ± 0.4 per second
Km ([1]; 50 nM dabigatran): 23.5 ± 1.3 µM
kcat ([1]; 50 nM dabigatran): 66.8 ± 1.6 per second
Km ([1]; 75 nM dabigatran): 31.5 ± 0.4 µM
kcat ([1]; 75 nM dabigatran): 63.8 ± 0.9 per second
Km ([1]; 100 nM dabigatran): 42.4 ± 3.5 µM
kcat ([1]; 100 nM dabigatran): 67.2 ± 1.9 per second
Ki ([1]; Ki dabigatran, Global fit): 10.3 ± 0.5 nM
Ki ([1]; Ki dabigatran, Individual fit): 10 ± 3.2 nM
Km ([2]; 25 nM dabigatran): 21.4 ± 1.5 µM
kcat ([2]; 25 nM dabigatran): 101 ± 2.3 per second
Km ([2]; 50 nM dabigatran): 32.7 ± 3 µM
kcat ([2]; 50 nM dabigatran): 105.5 ± 5.1 per second
Km ([2]; 75 nM dabigatran): 42.8 ± 7.8 µM
kcat ([2]; 75 nM dabigatran): 103.2 ± 4.2 per second
Km ([2]; 100 nM dabigatran): 57 ± 2.1 µM
kcat ([2]; 100 nM dabigatran): 104.7 ± 2.1 per second
Ki ([2]; Ki dabigatran, Global fit): 0.0233 ± 0.002 µM
Km ([3]; 25 nM dabigatran): 23 ± 1.3 µM
kcat ([3]; 25 nM dabigatran): 90.6 ± 2.6 per second
Km ([3]; 50 nM dabigatran): 37.6 ± 0.6 µM
kcat ([3]; 50 nM dabigatran): 89.1 ± 1.7 per second
Km ([3]; 75 nM dabigatran): 46.8 ± 1.5 µM
kcat ([3]; 75 nM dabigatran): 90.2 ± 2.3 per second
Km ([3]; 100 nM dabigatran): 61.1 ± 6.1 µM
kcat ([3]; 100 nM dabigatran): 87.5 ± 4.4 per second
Ki ([3]; Ki dabigatran, Global fit): 0.0141 ± 0.0011 µM
Ki ([3]; Ki dabigatran, Individual fit): 0.0179 ± 0.0033 µM
kcat ([4]; 100 nM dabigatran): 47.5 ± 2 per second
kcat ([4]; 150 nM dabigatran): 50.1 ± 1.5 per second
kcat ([4]; 200 nM dabigatran): 49.3 ± 1.7 per second
Km (bovine trypsin; 50 nM dabigatran): 49.5 ± 3.3 µM
kcat (bovine trypsin; 50 nM dabigatran): 127.7 ± 0.8 per second
Km (bovine trypsin; 100 nM dabigatran): 71.6 ± 3.5 µM
kcat (bovine trypsin; 100 nM dabigatran): 126.6 ± 3.5 per second
Km (bovine trypsin; 150 nM dabigatran): 91.9 ± 4.9 µM
kcat (bovine trypsin; 150 nM dabigatran): 123.8 ± 2.9 per second
Km (bovine trypsin; 200 nM dabigatran): 126 ± 7 µM
kcat (bovine trypsin; 200 nM dabigatran): 130.1 ± 1.4 per second
